Consider one molecule from patent publication US10800812B2, “Compstatin analogs with increased solubility and improved pharmacokinetic properties” (The Trustees of the University of Pennsylvania, priority 2018, dated 2020).

SMILES strings stand for the structures.

Data set [1] is described as follows: Plasma concentration after multiple injections in NHP. Conditions: cynomolgus monkey, in vivo, sc, 4 mg/kg. It is filed as in vivo, cynomolgus monkeys.
Data set [2] is described as follows: Residence time in the vitreous after intravitreal injection (WES / SPR competition assay). To be noted: Cp40 i.v.t administered. The class given is in vivo, cynomolgus monkeys. Details: detection in the vitreous: dose or concentration left out as unconfirmed. How it is done:
To determine the residence time of mPEG(3k)-Cp40, mPEG(1k)-Cp40, Cp40-KK, and Cp40-KKK in the vitreous of cynomolgus macaques, these Cp40-based analogs were administered intravitreally (i.v.t.) to the animals after induction of light ketamine anesthesia (10-15 mg/kg, by intramuscular injection (i.m.)) and dilation of the pupils with tropicamide/phenylephrine ophthalmic solution (see Table 6 for study design).
For i.v.t. injection, the cynomolgus monkeys were anesthetized with a combination of ketamine (15-25 mg/kg, i.m.) and xylazine (2 mg/kg, i.m.) and the eye was cleaned with povidone-iodine solution. After application of oxybuprocaine hydrochloride solution (Benoxil® ophthalmic solution 0.4%) to the cornea as a local anesthetic, the Cp40-based analogs were administered to the animals by i.v.t. injection into either the right (G1, G3) or left (G2, G4) eye of each animal. Immediately following each injection, a single topical dose of 0.5% levofloxacin was administered. After i.v.t. injection of mPEG(3k)-Cp40, mPEG(1k)-Cp40, Cp40-KK, and Cp40-KKK, vitreous fluid samples (about 50 μL each) were withdrawn from Cp40-based analog-treated eyes on days 14, 28, 42, (G1, G2, G3, G4), 56, 73, 90 (G1, G2) (this was done either three times or six times). Samples were collected on ice and stored in a deep freezer (−79.3 to −68.5° C.) until further analysis. On day 73 and 90, about 100 μL of vitreous fluid from G1 and G2 were withdrawn. Presence and concentration of the Cp40-based analogs was determined using either the simple western technology (WES, ProteinSimple, San Jose, Calif.), or surface plasmon resonance (SPR)-based real-time measurement of binding kinetics on a Cp40-KKK immobilized chip (see detailed methods below). Similar results with regard to the intravitreal residence time and concentration levels of the test compounds were obtained regardless of the quantification method selected.
To quantify the levels of all test compounds in vitreous samples collected at different time points following i.v.t. injection (see FIG. 15), WES analysis was performed on a WES instrument (ProteinSimple, San Jose, Calif.) using a 2 to 40 kDa Separation Module and Anti-Rabbit Detection Module according to the manufacturers' instructions. In brief, undiluted eye vitreous samples were mixed with a Fluorescent Master Mix and heated at 95° C. for 5 min. The samples, blocking reagent, primary antibodies (in house developed anti-Cp40; 1:1000 in blocking reagent), HRP-conjugated secondary antibody (anti-rabbit IgG) and chemiluminescent substrate were pipetted into the plate (part of Separation Module). The used instrument settings were: stacking and separation at 375 V for 27 min; blocking reagent for 30 min, primary and secondary antibody both for 30 min; Luminol/peroxide chemiluminescence detection for ˜15 min (exposures of 5, 15, 30, 60, 120, 240, and 480 s). The resulting electropherograms were evaluated using the Compass software (ProteinSimple, San Jose, Calif.). The following criteria were used to discriminate low peptide signals from background: The peak signal-to-noise (S/N) ratio given by the software must be ≥10, and the peak height/baseline ratio (calculated manually from the peak height and baseline values given by the software) must be equal to or greater than 3. A five-point standard curve of known concentrations (100-2,000 nM) of peptide spiked in rabbit vitreous was used to calculate peptide concentration in the vitreous samples using the Compass software (Compass Software Inc., Atlanta, Ga.). […] Shown in FIG. 15 is a representative standard curve generated using the WES system and bands obtained upon running pre-determined amounts of purified peptide spiked into rabbit vitreous samples.
To corroborate the WES-based measurements for all test compounds, an SPR-based competition assay was developed for detecting Cp40 and Cp40 analogs in biological samples. […] The samples were heated at 95° C. for 5 min. […]

Data set [3] relates to classical pathway activation (C3b deposition). Nature of the data set: Classical pathway activation ELISA (C3b deposition) with or without rabbit vitreous. It is filed as biochemical, human. Conditions: in the absence of vitreous. The method, then: An alternative explanation to the one presented above is that the vitreous contains additional unidentified factors that associate with the Cp40-KKK analog. To investigate whether an unidentified vitreous factor impacts the complement inhibitory activity of lysine containing compounds, complement activation assays were performed using vitreous samples. Briefly, human plasma was incubated with OVA-anti-OVA immune-complexes in the presence of serial dilutions of the Cp40-based analogs mixed with rabbit vitreous. Levels of classical pathway activation (C3b deposition) were determined by ELISA using a polyclonal anti-human C3 antibody conjugated with HRP (MP Biomedicals, Solon, Ohio) (FIG. 20).

The target of the next data set is C3 (Homo sapiens, UniProt P01024). Conditions: Qu et al. 2013; cited from earlier work.
A short description of data set [4]: in vivo. Conditions: male, cynomolgus monkey, sc, 2 mg/kg, t1/2.
A short description of data set [5]: in vivo. To be noted: cynomolgus monkey, im, 25 mg/kg.
The nature of a further data set: physchem. Conditions: pH 7.4, Conc. (solubility in PBS).
Data set [6] can be described thus: Solubility of Cp40-based analogs in PBS. Conditions: at the solubility concentration.
Data set [7] is described as follows: Pharmacokinetics in NHP plasma after single s.c. injection. To be noted: 2 mg/kg, single s.c. 2 mg/kg, NHP plasma, two animals.

Chain of C3 (P01024 23-1663): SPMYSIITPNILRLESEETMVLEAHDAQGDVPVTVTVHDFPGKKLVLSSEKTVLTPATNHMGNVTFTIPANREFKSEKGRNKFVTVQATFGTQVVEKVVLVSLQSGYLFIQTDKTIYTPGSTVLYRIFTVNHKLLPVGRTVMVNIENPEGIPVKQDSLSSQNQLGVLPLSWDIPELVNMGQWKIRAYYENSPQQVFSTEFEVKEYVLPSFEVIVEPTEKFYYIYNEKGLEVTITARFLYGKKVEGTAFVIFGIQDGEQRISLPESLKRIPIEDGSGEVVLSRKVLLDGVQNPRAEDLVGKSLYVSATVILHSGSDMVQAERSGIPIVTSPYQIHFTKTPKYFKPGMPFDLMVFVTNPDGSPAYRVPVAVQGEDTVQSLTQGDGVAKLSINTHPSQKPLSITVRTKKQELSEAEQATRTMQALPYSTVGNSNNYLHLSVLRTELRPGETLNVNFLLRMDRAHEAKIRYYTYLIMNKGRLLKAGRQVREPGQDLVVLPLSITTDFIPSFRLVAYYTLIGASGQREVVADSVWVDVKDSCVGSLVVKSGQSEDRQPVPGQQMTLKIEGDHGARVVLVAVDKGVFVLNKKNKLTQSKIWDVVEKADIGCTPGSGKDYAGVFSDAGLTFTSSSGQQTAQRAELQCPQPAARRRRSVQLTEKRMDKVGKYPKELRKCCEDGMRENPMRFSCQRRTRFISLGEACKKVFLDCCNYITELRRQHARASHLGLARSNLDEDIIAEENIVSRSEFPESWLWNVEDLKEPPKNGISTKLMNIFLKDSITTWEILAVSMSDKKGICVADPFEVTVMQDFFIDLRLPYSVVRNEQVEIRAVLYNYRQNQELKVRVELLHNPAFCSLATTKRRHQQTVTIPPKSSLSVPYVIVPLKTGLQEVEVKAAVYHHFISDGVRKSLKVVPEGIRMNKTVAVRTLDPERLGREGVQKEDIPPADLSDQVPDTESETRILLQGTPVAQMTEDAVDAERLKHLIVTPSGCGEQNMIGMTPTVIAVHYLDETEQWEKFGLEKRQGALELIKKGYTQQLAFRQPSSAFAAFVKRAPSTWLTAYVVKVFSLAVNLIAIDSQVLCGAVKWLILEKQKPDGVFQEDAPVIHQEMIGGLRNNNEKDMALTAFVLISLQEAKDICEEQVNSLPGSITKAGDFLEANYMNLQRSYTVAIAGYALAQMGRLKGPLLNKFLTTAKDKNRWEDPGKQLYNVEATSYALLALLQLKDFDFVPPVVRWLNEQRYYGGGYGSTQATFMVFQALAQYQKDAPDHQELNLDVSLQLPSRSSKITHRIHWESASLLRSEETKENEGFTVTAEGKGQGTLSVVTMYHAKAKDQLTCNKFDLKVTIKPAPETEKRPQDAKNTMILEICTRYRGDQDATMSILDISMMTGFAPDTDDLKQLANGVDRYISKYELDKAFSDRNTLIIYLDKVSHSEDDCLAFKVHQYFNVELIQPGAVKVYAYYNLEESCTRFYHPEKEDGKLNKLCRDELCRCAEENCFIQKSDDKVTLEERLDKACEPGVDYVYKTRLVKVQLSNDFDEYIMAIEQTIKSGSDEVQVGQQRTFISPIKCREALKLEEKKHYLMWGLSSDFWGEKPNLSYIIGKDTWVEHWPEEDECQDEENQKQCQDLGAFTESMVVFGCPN

Turning to `CC[C@H](C)[C@H](NC(=O)[C@H](N)Cc1ccc(O)cc1)C(=O)N[C@H]1CSSC[C@@H](C(=O)N(C)[C@H](C(N)=O)[C@@H](C)CC)NC(=O)[C@H](CCCNC(=N)N)NC(=O)[C@H](Cc2c[nH]cn2)NC(=O)[C@H](C)NC(=O)CN(C)C(=O)[C@H](Cc2c[nH]c3ccccc23)NC(=O)[C@H](CC(=O)O)NC(=O)[C@H](CCC(N)=O)NC(=O)[C@H](Cc2cn(C)c3ccccc23)NC(=O)[C@H](C(C)C)NC1=O` [Cp40, DTyr-Ile-[Cys-Val-Trp(Me)-Gln-Asn-Trp-Sar-Ala-His-Arg-Cys]-mIle-NH2, reference compound], in data set [1], the Cmax (as a rule, the highest concentration seen after dosing) fell in the range of 8 to 10 µM. In addition, in data set [2], the “detection in the vitreous” value is listed as “no detection of any compound was observed after one month”. The “complement classical pathway inhibitory activity” value in data set [3] was “inhibitory activity in a dose-dependent manner”. Besides, on C3, the “binding affinity for C3” value is listed as “subnanomolar” and the “binding affinity for C3 higher than that of the parent peptide” value was ~6,000 fold. Besides, in the data set “in vivo [4]”, the half-life (as a rule, the time needed for the level to fall by half in the phase considered) was 2460 min. Also, in “in vivo [5]”, the half-life is approximately 8 days. Besides, in “physchem”, the solubility (commonly how much of the substance goes into solution per volume) was not below 1080 µg/mL. Moreover, in data set [6], the “pH of the peptide solution in PBS” value worked out at 7.5. For the same molecule, the AUC(0-t) (usually the area under the concentration-time curve up to a stated or last time point) in data set [7] (male, cynomolgus monkey, plasma, sc, AUC0-t (0-120 h)) came out at 233 µM·h. Moreover, the AUC(0-inf) (as a rule, total exposure, with the tail of the curve extrapolated) in [7] (male, cynomolgus monkey, plasma, sc, AUCinf) turned out to be 263 µM·h. In data set [7] (male, cynomolgus monkey, plasma, sc, Cmax), this molecule gave a Cmax of 6.2 µM. For the same molecule, the Tmax (commonly the time at which the peak concentration occurs) in [7] (male, cynomolgus monkey, plasma, sc, tmax) was determined as 2 h. In [7], the “AUC0-t (0-120 h)” value is 218 µM·h, the AUCinf turned out to be 255 µM·h and the peak level (Cmax) was 5.53 µM.
